ChEMBL document CHEMBL4265887 (Bioorg Med Chem Lett, 2018)
Activity calls are given as the source filed them. No cut-off for these calls is given here.

How the values were obtained:
[1] = biological target: Protein kinase C alpha type (Homo sapiens) (UniProt P17252); experiment: Inhibition of PKCalpha (unknown origin) at 10 uM
[2] = biological target: Mitogen-activated protein kinase 3 (Homo sapiens) (UniProt P27361); experiment: Inhibition of ERK1 (unknown origin) at 10 uM
[3] = tested on: HCT-116; experiment: Synergistic cytotoxicity against human HCT116 cells assessed as reduction in cell viability by measuring combination index at 1:1 compound to GSK2126458 ratio after 48 hrs by MTT assay; type: functional
[4] = biological target: RAC-alpha serine/threonine-protein kinase (Homo sapiens) (UniProt P31749); experiment: Inhibition of AKT1 (unknown origin) at 10 uM
[5] = biological target: Fibroblast growth factor receptor 3 (Homo sapiens) (UniProt P22607); experiment: Inhibition of FGFR3 (unknown origin) at 10 uM
[6] = biological target: Proto-oncogene tyrosine-protein kinase receptor Ret (Homo sapiens) (UniProt P07949); experiment: Inhibition of RET (unknown origin) at 10 uM
[7] = biological target: Serine/threonine-protein kinase PLK3 (Homo sapiens) (UniProt Q9H4B4); experiment: Inhibition of PLK3 (unknown origin) at 10 uM
[8] = tested on: HCT-116; experiment: Inhibition of cytokinesis in human HCT116 cells at 1 uM after 24 hrs by propidium iodide/RNase staining-based flow cytometric analysis; type: functional, cell-based
[9] = biological target: Serine/threonine-protein kinase mTOR (Homo sapiens) (UniProt P42345); experiment: Inhibition of mTOR (unknown origin) at 10 uM
[10] = biological target: Tyrosine-protein kinase JAK3 (Homo sapiens) (UniProt P52333); experiment: Inhibition of JAK3 (unknown origin) at 10 uM
[11] = biological target: Tyrosine-protein kinase receptor UFO (Homo sapiens) (UniProt P30530); experiment: Inhibition of AXL (unknown origin) at 10 uM
[12] = biological target: Interleukin-1 receptor-associated kinase 4 (Homo sapiens) (UniProt Q9NWZ3); experiment: Inhibition of IRAK4 (unknown origin) at 10 uM
[13] = biological target: High affinity nerve growth factor receptor (Homo sapiens) (UniProt P04629); experiment: Inhibition of TrkA (unknown origin) at 10 uM
[14] = biological target: Vascular endothelial growth factor receptor 2 (Homo sapiens) (UniProt P35968); experiment: Inhibition of VEGFR2 (unknown origin) at 10 uM
[15] = biological target: Serine/threonine-protein kinase pim-1 (Homo sapiens) (UniProt P11309); experiment: Inhibition of PIM1 (unknown origin) at 10 uM
[16] = biological target: Tyrosine-protein kinase ABL1 (Homo sapiens) (UniProt P00519); experiment: Inhibition of ABL (unknown origin) at 10 uM
[17] = tested on: HCT-116; experiment: Inhibition of cytokinesis in human HCT116 cells at 100 nM after 24 hrs by propidium iodide/RNase staining-based flow cytometric analysis; type: functional, cell-based
[18] = biological target: Receptor tyrosine-protein kinase erbB-2 (Homo sapiens) (UniProt P04626); experiment: Inhibition of ErbB2 (unknown origin) at 10 uM
[19] = tested on: HT-29; experiment: Synergistic cytotoxicity against human HT-29 cells assessed as reduction in cell viability by measuring combination index at 1:1 compound to erlotinib ratio after 48 hrs by MTT assay; type: functional
[20] = tested on: HT-29; experiment: Synergistic cytotoxicity against human HT-29 cells assessed as reduction in cell viability by measuring combination index at 1:1 compound to GSK2126458 ratio after 48 hrs by MTT assay; type: functional
[21] = tested on: HCT-116; experiment: Induction of apoptosis in human HCT116 cells at 1 uM after 72 hrs by Annexin V-FITC/propidium iodide staining-based flow cytometric analysis; type: functional, cell-based

Receptor tyrosine-protein kinase erbB-2 (Homo sapiens), sequence (P04626 whole entry): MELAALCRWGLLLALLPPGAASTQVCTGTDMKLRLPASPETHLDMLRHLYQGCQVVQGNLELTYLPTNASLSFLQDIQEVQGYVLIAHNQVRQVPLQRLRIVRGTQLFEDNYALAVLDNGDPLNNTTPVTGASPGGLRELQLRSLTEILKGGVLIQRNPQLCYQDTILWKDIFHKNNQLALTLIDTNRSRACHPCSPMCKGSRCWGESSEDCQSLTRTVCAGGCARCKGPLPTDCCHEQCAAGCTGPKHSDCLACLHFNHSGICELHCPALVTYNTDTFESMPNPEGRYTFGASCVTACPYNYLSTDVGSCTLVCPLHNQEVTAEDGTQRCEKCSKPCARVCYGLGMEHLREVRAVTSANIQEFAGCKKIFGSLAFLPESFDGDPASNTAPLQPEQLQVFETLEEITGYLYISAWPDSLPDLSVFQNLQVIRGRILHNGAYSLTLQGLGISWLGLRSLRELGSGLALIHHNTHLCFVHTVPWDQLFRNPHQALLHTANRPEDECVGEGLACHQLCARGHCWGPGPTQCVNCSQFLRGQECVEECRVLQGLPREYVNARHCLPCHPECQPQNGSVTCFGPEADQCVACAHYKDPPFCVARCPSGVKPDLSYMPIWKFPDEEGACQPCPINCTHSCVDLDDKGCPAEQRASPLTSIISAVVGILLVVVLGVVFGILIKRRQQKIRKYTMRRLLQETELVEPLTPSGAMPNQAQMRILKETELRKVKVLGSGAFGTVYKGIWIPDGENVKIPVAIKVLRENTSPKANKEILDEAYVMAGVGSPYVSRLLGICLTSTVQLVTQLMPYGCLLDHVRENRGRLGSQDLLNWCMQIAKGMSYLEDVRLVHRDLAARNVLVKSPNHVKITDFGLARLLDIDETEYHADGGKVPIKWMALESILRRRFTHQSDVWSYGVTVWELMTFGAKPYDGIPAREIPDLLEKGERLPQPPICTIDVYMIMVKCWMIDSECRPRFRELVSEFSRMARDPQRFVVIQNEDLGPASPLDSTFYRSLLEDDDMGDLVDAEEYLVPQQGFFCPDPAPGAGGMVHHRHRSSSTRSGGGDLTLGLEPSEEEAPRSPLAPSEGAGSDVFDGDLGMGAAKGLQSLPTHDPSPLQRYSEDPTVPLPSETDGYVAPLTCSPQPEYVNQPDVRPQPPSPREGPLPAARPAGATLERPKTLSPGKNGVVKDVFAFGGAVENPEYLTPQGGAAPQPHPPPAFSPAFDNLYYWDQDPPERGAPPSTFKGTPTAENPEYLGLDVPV
Vascular endothelial growth factor receptor 2 (Homo sapiens), sequence (P35968 whole entry): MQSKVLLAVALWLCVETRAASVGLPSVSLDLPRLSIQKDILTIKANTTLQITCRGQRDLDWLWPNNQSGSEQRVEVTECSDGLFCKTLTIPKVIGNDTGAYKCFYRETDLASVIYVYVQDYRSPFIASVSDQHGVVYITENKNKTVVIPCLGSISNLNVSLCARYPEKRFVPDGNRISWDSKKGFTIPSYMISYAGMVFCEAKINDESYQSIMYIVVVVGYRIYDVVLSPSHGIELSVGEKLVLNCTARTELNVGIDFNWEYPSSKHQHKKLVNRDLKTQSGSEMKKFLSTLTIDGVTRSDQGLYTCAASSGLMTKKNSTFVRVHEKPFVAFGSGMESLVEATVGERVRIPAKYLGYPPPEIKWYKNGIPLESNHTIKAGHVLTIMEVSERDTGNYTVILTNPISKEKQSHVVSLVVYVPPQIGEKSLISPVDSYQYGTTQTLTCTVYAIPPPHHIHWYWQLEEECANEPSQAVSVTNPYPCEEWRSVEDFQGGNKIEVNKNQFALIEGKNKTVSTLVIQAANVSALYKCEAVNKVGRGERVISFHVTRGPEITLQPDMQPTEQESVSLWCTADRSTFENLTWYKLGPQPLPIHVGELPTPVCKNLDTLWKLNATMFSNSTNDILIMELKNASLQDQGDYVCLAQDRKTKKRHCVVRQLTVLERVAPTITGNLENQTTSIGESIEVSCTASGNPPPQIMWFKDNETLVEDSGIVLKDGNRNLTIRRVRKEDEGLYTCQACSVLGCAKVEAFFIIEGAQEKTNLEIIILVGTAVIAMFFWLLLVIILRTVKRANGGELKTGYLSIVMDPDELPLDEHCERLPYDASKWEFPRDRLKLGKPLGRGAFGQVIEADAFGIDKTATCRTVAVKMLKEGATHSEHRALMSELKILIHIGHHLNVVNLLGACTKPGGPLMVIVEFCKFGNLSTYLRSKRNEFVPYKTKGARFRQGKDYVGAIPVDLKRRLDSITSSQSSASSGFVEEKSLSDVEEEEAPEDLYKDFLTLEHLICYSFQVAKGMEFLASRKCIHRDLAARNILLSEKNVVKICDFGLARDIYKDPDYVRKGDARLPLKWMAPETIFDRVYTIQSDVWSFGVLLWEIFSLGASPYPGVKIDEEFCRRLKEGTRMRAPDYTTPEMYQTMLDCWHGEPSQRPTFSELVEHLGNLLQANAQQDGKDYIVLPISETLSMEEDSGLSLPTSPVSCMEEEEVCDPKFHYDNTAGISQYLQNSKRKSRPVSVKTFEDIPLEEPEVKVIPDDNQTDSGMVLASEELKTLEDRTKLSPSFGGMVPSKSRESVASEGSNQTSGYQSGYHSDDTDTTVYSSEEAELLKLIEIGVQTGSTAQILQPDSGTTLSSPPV
Mitogen-activated protein kinase 3 (Homo sapiens), sequence (P27361 whole entry): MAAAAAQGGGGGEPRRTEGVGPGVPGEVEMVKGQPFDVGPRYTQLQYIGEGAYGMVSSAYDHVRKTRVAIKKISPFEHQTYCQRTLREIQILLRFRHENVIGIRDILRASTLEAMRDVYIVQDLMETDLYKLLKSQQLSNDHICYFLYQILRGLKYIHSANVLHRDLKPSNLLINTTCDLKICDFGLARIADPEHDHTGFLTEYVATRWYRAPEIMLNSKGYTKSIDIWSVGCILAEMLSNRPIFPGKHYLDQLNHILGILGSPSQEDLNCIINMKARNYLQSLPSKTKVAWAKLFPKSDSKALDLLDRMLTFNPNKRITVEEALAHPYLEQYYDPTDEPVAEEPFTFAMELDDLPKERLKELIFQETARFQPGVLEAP
Serine/threonine-protein kinase PLK3 (Homo sapiens), sequence (Q9H4B4 whole entry, looked up): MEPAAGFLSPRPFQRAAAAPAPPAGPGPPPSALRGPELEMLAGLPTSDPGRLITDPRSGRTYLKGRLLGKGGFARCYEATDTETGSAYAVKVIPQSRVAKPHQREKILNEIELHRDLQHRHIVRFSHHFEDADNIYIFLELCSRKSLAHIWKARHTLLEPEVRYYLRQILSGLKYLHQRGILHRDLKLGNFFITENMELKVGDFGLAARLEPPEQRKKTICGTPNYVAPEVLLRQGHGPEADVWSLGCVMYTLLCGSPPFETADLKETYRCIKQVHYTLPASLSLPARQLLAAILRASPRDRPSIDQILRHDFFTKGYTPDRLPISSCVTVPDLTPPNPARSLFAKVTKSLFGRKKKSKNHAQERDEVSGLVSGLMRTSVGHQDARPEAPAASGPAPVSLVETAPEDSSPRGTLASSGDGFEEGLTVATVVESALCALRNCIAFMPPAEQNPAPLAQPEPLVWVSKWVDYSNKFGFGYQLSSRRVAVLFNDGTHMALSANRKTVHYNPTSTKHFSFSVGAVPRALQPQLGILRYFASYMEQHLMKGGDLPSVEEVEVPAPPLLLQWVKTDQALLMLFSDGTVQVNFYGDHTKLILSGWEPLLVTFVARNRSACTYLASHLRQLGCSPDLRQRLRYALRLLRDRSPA
Tyrosine-protein kinase ABL1 (Homo sapiens), sequence (P00519 whole entry): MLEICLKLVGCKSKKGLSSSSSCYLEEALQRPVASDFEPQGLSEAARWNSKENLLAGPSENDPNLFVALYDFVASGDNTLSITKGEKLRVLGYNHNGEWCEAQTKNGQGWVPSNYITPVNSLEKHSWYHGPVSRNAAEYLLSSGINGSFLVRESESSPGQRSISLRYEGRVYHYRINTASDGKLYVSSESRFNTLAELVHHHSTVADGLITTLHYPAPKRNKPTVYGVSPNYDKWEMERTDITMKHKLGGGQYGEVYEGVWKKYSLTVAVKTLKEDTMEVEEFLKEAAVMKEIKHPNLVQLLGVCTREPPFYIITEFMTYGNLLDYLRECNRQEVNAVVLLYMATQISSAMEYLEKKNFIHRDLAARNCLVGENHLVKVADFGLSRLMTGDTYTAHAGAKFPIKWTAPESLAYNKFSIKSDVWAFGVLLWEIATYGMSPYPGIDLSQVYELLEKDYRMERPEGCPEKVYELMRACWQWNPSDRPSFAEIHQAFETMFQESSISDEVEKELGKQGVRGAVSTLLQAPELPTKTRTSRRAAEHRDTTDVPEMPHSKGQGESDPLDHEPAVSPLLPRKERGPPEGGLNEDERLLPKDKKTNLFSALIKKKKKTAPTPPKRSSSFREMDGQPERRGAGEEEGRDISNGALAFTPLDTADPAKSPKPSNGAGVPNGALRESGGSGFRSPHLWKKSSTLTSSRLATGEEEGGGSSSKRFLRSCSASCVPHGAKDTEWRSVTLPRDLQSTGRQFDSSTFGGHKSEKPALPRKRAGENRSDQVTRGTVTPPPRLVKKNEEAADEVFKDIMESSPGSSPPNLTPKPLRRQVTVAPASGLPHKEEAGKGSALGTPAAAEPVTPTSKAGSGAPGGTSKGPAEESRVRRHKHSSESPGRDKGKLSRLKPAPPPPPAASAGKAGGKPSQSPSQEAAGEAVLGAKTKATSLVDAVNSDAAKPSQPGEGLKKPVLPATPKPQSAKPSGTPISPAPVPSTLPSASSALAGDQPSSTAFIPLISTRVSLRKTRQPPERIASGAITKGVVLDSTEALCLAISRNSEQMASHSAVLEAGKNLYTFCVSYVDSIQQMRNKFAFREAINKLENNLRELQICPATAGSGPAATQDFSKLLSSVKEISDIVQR
Serine/threonine-protein kinase pim-1 (Homo sapiens), sequence (P11309 whole entry, looked up): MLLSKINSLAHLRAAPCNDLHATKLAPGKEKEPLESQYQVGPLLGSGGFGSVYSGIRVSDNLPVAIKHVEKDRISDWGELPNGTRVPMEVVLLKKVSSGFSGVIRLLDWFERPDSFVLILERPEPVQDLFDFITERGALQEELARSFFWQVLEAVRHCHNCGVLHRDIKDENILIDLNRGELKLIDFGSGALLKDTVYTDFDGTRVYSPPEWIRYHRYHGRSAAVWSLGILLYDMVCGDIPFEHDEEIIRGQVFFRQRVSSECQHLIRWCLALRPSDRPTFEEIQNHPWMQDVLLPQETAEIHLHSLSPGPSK

Work on `CNC(=O)Nc1sc2c(C(C)C)cc(NS(=O)(=O)c3cccs3)cc2c1C(N)=O` yielded an inhibition [1] of 21.4%, an inhibition [2] of 12.4% and a CI [3] of 1.042. The inhibition [4] was 13.6%, the inhibition [5] was 81.6% and the inhibition [6] was 98.4%. The inhibition [7] was 78.7%, the “Cytokinesis inhibition (active/inactive call)” value [8] was “Active” and the inhibition [9] was 8.62%. It also gave an inhibition [10] of 99.6%, an inhibition [11] of 112% and an inhibition [12] of 16%. For the same compound, the inhibition [13] was 95.3%, the inhibition [14] was 109% and the inhibition [15] was 35.7%. The inhibition [16] was 100%, the “Cytokinesis inhibition (active/inactive call)” value [17] was “Active” and the inhibition [18] was 35.9%. The CI [19] was 0.075, the CI [20] was 1.044 and the Activity [21] was “Active”.
